In patent EP4596537A1, “NOVEL FLUORENE DERIVATIVE COMPOUND AND USE THEREOF” (JD Bioscience Inc., priority 2022, dated 2024):

Each compound was assayed on PDHE1α S293 (assay: In vitro PDH S293 phosphorylation inhibition (Western blot) in HEK293 cells). Conditions: Homo sapiens, 5 hours.
Format: cell-based, human
Protocol: HEK293 cells, which are human embryonic kidney cells, were seeded at a density of 2 × 10^6 in a 60 mm dish, and cultured for 24 hours. After replacing the medium with a medium comprising 0.5% FBS, the compounds prepared according to Examples 1 to 54 were treated at various concentrations. 5 hours later, the cells were scraped off and collected into a 15 mL conical tube and centrifuged at 1500 rpm for 10 minutes. The supernatant was discarded, the resultant was washed with 1× PBS, and transferred to a 1.5 mL e-tube, followed by centrifugation at 10,000 rpm for 5 minutes. The supernatant was discarded again, a lysis buffer was added, and the cells were lysed on ice for 30 minutes. The cells were vortexed every 10 minutes to completely lyse, and centrifuged again at 10,000 rpm for 15 minutes at 4°C, and the supernatant was collected. The protein in the supernatant was quantified using BCA technique, and the sample buffer was added to 20 µg of protein and allowed to react at 70°C for 5 minutes. The expression of PDHE1α S232, S293, S300, and total PDHE1α proteins was detected by Western blot, and the resulting PDH S293 phosphorylation inhibition is shown in Table 6. […]
`COc1cc(-c2cnn(C(C)C(=O)NNc3ccc(F)cc3)c2)c2c(c1)C(O)(C(F)(F)F)c1ccccc1-2` (stereo not shown) [Example 2, N'-(4-fluorophenyl)-2-(4-(9-hydroxy-2-methoxy-9-(trifluoromethyl)-9H-fluoren-4-yl)-1H-pyrazol-1-yl)propanehydrazide] showed an inhibition at 1 µM of no less than 50%.
With `CC(C(=O)NNc1ccc(S(C)(=O)=O)cc1F)n1cc(-c2cc(F)cc3c2-c2ccccc2C3(O)C(F)(F)F)cn1` (stereo not shown) [Example 3, N'-(2-fluoro-4-(methylsulfonyl)phenyl)-2-(4-(2-fluoro-9-hydroxy-9-(trifluoromethyl)-9H-fluoren-4-yl)-1H-pyrazol-1-yl)propanehydrazide] the inhibition at 1 µM was no less than 50%.
In the case of `CC(C(=O)NNc1ccccc1)n1cc(-c2cc(F)cc3c2-c2ccccc2C3(O)C(F)(F)F)cn1` (stereo not shown) [Example 4, 2-(4-(2-fluoro-9-hydroxy-9-(trifluoromethyl)-9H-fluoren-4-yl)-1H-pyrazol-1-yl)-N'-phenylpropanehydrazide], the inhibition at 1 µM is reported as no less than 80%.
With `CC(C(=O)NNc1cccc2ccccc12)n1cc(-c2cc(F)cc3c2-c2ccccc2C3(O)C(F)(F)F)cn1` (stereo not shown) [Example 5, 2-(4-(2-fluoro-9-hydroxy-9-(trifluoromethyl)-9H-fluoren-4-yl)-1H-pyrazol-1-yl)-N'-(naphthalen-1-yl)propanehydrazide] the inhibition at 1 µM was no less than 50%.
For `CC(C(=O)NNc1ccccc1Cl)n1cc(-c2cc(F)cc3c2-c2ccccc2C3(O)C(F)(F)F)cn1` (stereo not shown) [Example 6, N'-(2-chlorophenyl)-2-(4-(2-fluoro-9-hydroxy-9-(trifluoromethyl)-9H-fluoren-4-yl)-1H-pyrazol-1-yl)propanehydrazide], the inhibition at 1 µM was no less than 50%.
`CC(C(=O)NNc1ccc(Cl)cc1)n1cc(-c2cc(F)cc3c2-c2ccccc2C3(O)C(F)(F)F)cn1` (stereo not shown) [Example 7, N'-(4-chlorophenyl)-2-(4-(2-fluoro-9-hydroxy-9-(trifluoromethyl)-9H-fluoren-4-yl)-1H-pyrazol-1-yl)propanehydrazide] showed an inhibition at 1 µM of no less than 50%.
For `CC(C(=O)NNc1ccccn1)n1cc(-c2cc(F)cc3c2-c2ccccc2C3(O)C(F)(F)F)cn1` (stereo not shown) [Example 8, 2-(4-(2-fluoro-9-hydroxy-9-(trifluoromethyl)-9H-fluoren-4-yl)-1H-pyrazol-1-yl)-N'-(pyridin-2-yl)propanehydrazide], the inhibition at 1 µM was no less than 80%.
Work on `COc1cc(-c2cnn(C(C)C(=O)NNc3ccc(S(C)(=O)=O)cc3F)c2)c2c(c1)C(O)(C(F)(F)F)c1ccccc1-2` (stereo not shown) [Example 9, N'-(2-fluoro-4-(methylsulfonyl)phenyl)-2-(4-(9-hydroxy-2-methoxy-9-(trifluoromethyl)-9H-fluoren-4-yl)-1H-pyrazol-1-yl)propanehydrazide] yielded an inhibition at 1 µM of no less than 80%.
In the case of `COc1cc(-c2cnn(C(C)C(=O)NNc3ccc(Cl)cc3)c2)c2c(c1)C(O)(C(F)(F)F)c1ccccc1-2` (stereo not shown) [Example 10, N'-(4-chlorophenyl)-2-(4-(9-hydroxy-2-methoxy-9-(trifluoromethyl)-9H-fluoren-4-yl)-1H-pyrazol-1-yl)propanehydrazide], the inhibition at 1 µM is reported as no less than 50%.
`COc1cc(-c2cnn(C(C)C(=O)NNc3cccc4ccccc34)c2)c2c(c1)C(O)(C(F)(F)F)c1ccccc1-2` (stereo not shown) [Example 11, 2-(4-(9-hydroxy-2-methoxy-9-(trifluoromethyl)-9H-fluoren-4-yl)-1H-pyrazol-1-yl)-N'-(naphthalen-1-yl)propanehydrazide] was tested, and the inhibition at 1 µM was no less than 50%.
With `COc1cc(-c2cnn(C(C)C(=O)NNc3ccccc3Cl)c2)c2c(c1)C(O)(C(F)(F)F)c1ccccc1-2` (stereo not shown) [Example 12, N'-(2-chlorophenyl)-2-(4-(9-hydroxy-2-methoxy-9-(trifluoromethyl)-9H-fluoren-4-yl)-1H-pyrazol-1-yl)propanehydrazide] the inhibition at 1 µM was no less than 50%.
In the case of `CC(C(=O)NNc1ccccc1F)n1cc(-c2cc(F)cc3c2-c2ccccc2C3(O)C(F)(F)F)cn1` (stereo not shown) [Example 13, 2-(4-(2-fluoro-9-hydroxy-9-(trifluoromethyl)-9H-fluoren-4-yl)-1H-pyrazol-1-yl)-N'-(2-fluorophenyl)propanehydrazide], the inhibition at 1 µM is reported as no less than 50%.
In the case of `CC(C(=O)NNc1ccc(C(=O)O)cn1)n1cc(-c2cc(F)cc3c2-c2ccccc2C3(O)C(F)(F)F)cn1` (stereo not shown) [Example 14, 6-(2-(2-(4-(2-fluoro-9-hydroxy-9-(trifluoromethyl)-9H-fluoren-4-yl)-1H-pyrazol-1-yl)propanoyl)hydrazinyl)nicotinic acid], the inhibition at 1 µM is reported as no less than 50%.
`COc1cc(-c2cnn(C(C)C(=O)NNc3ccc(C(=O)OC(C)(C)C)cn3)c2)c2c(c1)C(O)(C(F)(F)F)c1ccccc1-2` (stereo not shown) [Example 15, tert-butyl 6-(2-(2-(4-(9-hydroxy-2-methoxy-9-(trifluoromethyl)-9H-fluoren-4-yl)-1H-pyrazol-1-yl)propanoyl)hydrazinyl)nicotinate] showed an inhibition at 1 µM of no less than 50%.
Work on `COc1cc(-c2cnn(C(C)C(=O)NNc3ccc(C(=O)O)cn3)c2)c2c(c1)C(O)(C(F)(F)F)c1ccccc1-2` (stereo not shown) [Example 16, 6-(2-(2-(4-(9-hydroxy-2-methoxy-9-(trifluoromethyl)-9H-fluoren-4-yl)-1H-pyrazol-1-yl)propanoyl)hydrazinyl)nicotinic acid] yielded an inhibition at 1 µM of no less than 50%.
Compound `COc1cc(-c2cnn(C(C)C(=O)NNc3ccccn3)c2)c2c(c1)C(O)(C(F)(F)F)c1ccccc1-2` (stereo not shown) [Example 17, 2-(4-(9-hydroxy-2-methoxy-9-(trifluoromethyl)-9H-fluoren-4-yl)-1H-pyrazol-1-yl)-N'-(pyridin-2-yl)propanehydrazide] has an inhibition at 1 µM of no less than 50%.
Work on `O=C(Cn1cc(-c2cc(F)cc3c2-c2ccccc2C3(O)C(F)(F)F)cn1)NNc1ccccn1` (stereo not shown) [Example 18, 2-(4-(2-fluoro-9-hydroxy-9-(trifluoromethyl)-9H-fluoren-4-yl)-1H-pyrazol-1-yl)-N'-(pyridin-2-yl)acetohydrazide] yielded an inhibition at 1 µM of no less than 80%.
`CC(C)(C)OC(=O)c1ccc(NNC(=O)Cn2cc(-c3cc(F)cc4c3-c3ccccc3C4(O)C(F)(F)F)cn2)nc1` (stereo not shown) [Example 19, tert-butyl 6-(2-(2-(4-(2-fluoro-9-hydroxy-9-(trifluoromethyl)-9H-fluoren-4-yl)-1H-pyrazol-1-yl)acetyl)hydrazinyl)nicotinate] showed an inhibition at 1 µM of no less than 50%.
In the case of `O=C(Cn1cc(-c2cc(F)cc3c2-c2ccccc2C3(O)C(F)(F)F)cn1)NNc1ccc(C(=O)O)cn1` (stereo not shown) [Example 20, 6-(2-(2-(4-(2-fluoro-9-hydroxy-9-(trifluoromethyl)-9H-fluoren-4-yl)-1H-pyrazol-1-yl)acetyl)hydrazinyl)nicotinic acid], the inhibition at 1 µM is reported as no less than 50%.
For `O=C(Cn1cc(-c2cc(F)cc3c2-c2ccccc2C3(O)C(F)(F)F)cn1)NNc1ccc(F)cc1` (stereo not shown) [Example 21, 2-(4-(2-fluoro-9-hydroxy-9-(trifluoromethyl)-9H-fluoren-4-yl)-1H-pyrazol-1-yl)-N'-(4-fluorophenyl)acetohydrazide], the inhibition at 1 µM was no less than 50%.
In the case of `CC(C(=O)NNc1ccc(S(C)(=O)=O)cc1)n1cc(-c2cc(F)cc3c2-c2ccccc2C3(O)C(F)(F)F)cn1` (stereo not shown) [Example 22, 2-(4-(2-fluoro-9-hydroxy-9-(trifluoromethyl)-9H-fluoren-4-yl)-1H-pyrazol-1-yl)-N'-(4-(methylsulfonyl)phenyl)propanehydrazide], the inhibition at 1 µM is reported as no less than 50%.
For `COc1cc(-c2cnn(C(C)C(=O)NNc3ccc(S(C)(=O)=O)cc3)c2)c2c(c1)C(O)(C(F)(F)F)c1ccccc1-2` (stereo not shown) [Example 23, 2-(4-(9-hydroxy-2-methoxy-9-(trifluoromethyl)-9H-fluoren-4-yl)-1H-pyrazol-1-yl)-N'-(4-(methylsulfonyl)phenyl)propanehydrazide], the inhibition at 1 µM was no less than 50%.
Work on `CC(C(=O)NNc1cnccn1)n1cc(-c2cc(F)cc3c2-c2ccccc2C3(O)C(F)(F)F)cn1` (stereo not shown) [Example 24, 2-(4-(2-fluoro-9-hydroxy-9-(trifluoromethyl)-9H-fluoren-4-yl)-1H-pyrazol-1-yl)-N'-(pyrazin-2-yl)propanehydrazide] yielded an inhibition at 1 µM of no less than 50%.
`COc1cc(-c2cnn(C(C)C(=O)NNc3cnccn3)c2)c2c(c1)C(O)(C(F)(F)F)c1ccccc1-2` (stereo not shown) [Example 25, 2-(4-(9-hydroxy-2-methoxy-9-(trifluoromethyl)-9H-fluoren-4-yl)-1H-pyrazol-1-yl)-N'-(pyrazin-2-yl)propanehydrazide] was tested, and the inhibition at 1 µM was no less than 50%.
In the case of `CC(C(=O)NNc1ccc(C(F)(F)F)cn1)n1cc(-c2cc(F)cc3c2-c2ccccc2C3(O)C(F)(F)F)cn1` (stereo not shown) [Example 26, 2-(4-(2-fluoro-9-hydroxy-9-(trifluoromethyl)-9H-fluoren-4-yl)-1H-pyrazol-1-yl)-N'-(5-(trifluoromethyl)pyridin-2-yl)propanehydrazide], the inhibition at 1 µM is reported as no less than 50%.
Compound `COc1cc(-c2cnn(C(C)C(=O)NNc3ccc(C(F)(F)F)cn3)c2)c2c(c1)C(O)(C(F)(F)F)c1ccccc1-2` (stereo not shown) [Example 27, 2-(4-(9-hydroxy-2-methoxy-9-(trifluoromethyl)-9H-fluoren-4-yl)-1H-pyrazol-1-yl)-N'-(5-(trifluoromethyl)pyridin-2-yl)propanehydrazide] has an inhibition at 1 µM of no less than 50%.
Compound `CC(C(=O)NNc1ncccn1)n1cc(-c2cc(F)cc3c2-c2ccccc2C3(O)C(F)(F)F)cn1` (stereo not shown) [Example 28, 2-(4-(2-fluoro-9-hydroxy-9-(trifluoromethyl)-9H-fluoren-4-yl)-1H-pyrazol-1-yl)-N'-(pyrimidin-2-yl)propanehydrazide] has an inhibition at 1 µM of no less than 50%.
Work on `COc1cc(-c2cnn(C(C)C(=O)NNc3ncccn3)c2)c2c(c1)C(O)(C(F)(F)F)c1ccccc1-2` (stereo not shown) [Example 29, 2-(4-(9-hydroxy-2-methoxy-9-(trifluoromethyl)-9H-fluoren-4-yl)-1H-pyrazol-1-yl)-N'-(pyrimidin-2-yl)propanehydrazide] yielded an inhibition at 1 µM of no less than 50%.
